Tested on: HSPC-pDCs
Experiment: RNA-sequencing of HSPC-pDCs generated with or without ascorbic acid
Format: cell-based, human
Settings: for Log2 (+AA/−AA) / +AA FPKM: Table 2
Procedure: HSPCs were thawed and 1×10^5 cells were seeded in DC medium with or without supplementation of ascorbic acid (AA). Following 16 days of differentiation with or without AA in the medium, pDCs were isolated by immunomagnetic depletion of non-pDCs, and HSPCs-pDCs were then primed for 72 hours with IFN-β/γ. Following priming, HSPC-pDCs were stored in RNAprotect Cell Reagent (Qiagen) at −80° C. until total RNA was extracted using the RNeasy Plus Micro Kit (Qiagen), which efficiently eliminates genomic DNA without the need for DNase treatment. The total RNA was send to BGI Europe for RNA-seq. Here, a non-stranded & polyA-selected mRNA library was prepared from the total RNA and subjected to PE100 sequencing using the BGISEQ platform. The samples generated on average about 4.84 Gb bases per sample. Low quality reads were filtered and the remaining reads were mapped to the genome with an average mapping ratio with the reference genome at 92.74%, the average gene mapping ratio at 79.90%. In total, 18,412 genes were identified. Gene expression was calculated based on the reads, differentially expressed genes and gene ontology analyses were analyzed on BGI's software analysis platform Dr. Tom. HSPCs were thawed and 1×10^5 cells were seeded in DC medium with or without supplementation of ascorbic acid (AA). Following 16 days of differentiation with or without AA in the medium, pDCs were isolated by immunomagnetic depletion of non-pDCs, and HSPCs-pDCs were then primed for 72 hours with IFN-β/γ. Following priming, HSPC-pDCs were stored in RNAprotect Cell Reagent (Qiagen) at −80 degrees until total RNA was extracted using the RNeasy Plus Micro Kit (Qiagen), which efficiently eliminates genomic DNA without the need for DNase treatment. The total RNA was send to BGI Europe for RNA-seq. Here, a non-stranded & polyA-selected mRNA library was prepared from the total RNA and subjected to PE100 sequencing using the BGISEQ platform. The samples generated on average about 4.84 Gb bases per sample. Low quality reads were filtered and the remaining reads were mapped to the genome with an average mapping ratio with the reference genome at 92.74%, the average gene mapping ratio at 79.90%. In total, 18,412 genes were identified. Gene expression was calculated based on the reads, differentially expressed genes and gene ontology analyses were analyzed on BGI's software analysis platform Dr. Tom.

For `O=C1O[C@H]([C@@H](O)CO)C(O)=C1O` [ascorbic acid], the “Log2 (+AA/−AA)” value (gene ACP5, Qvalue 4.83E−10) was 2.221, the “+AA FPKM” value (gene ACP5, −AA FPKM 31.073) was 146.980 FPKM and the “Log2 (+AA/−AA)” value (gene ADAMDEC1, Qvalue 0.0010135) was 3.569. For the same compound, the “+AA FPKM” value (gene ADAMDEC1, −AA FPKM 1.127) was 13.453 FPKM, the “Log2 (+AA/−AA)” value (gene ASS1, Qvalue 2.41E−08) was 5.358 and the “+AA FPKM” value (gene ASS1, −AA FPKM 0.477) was 19.263 FPKM. The “Log2 (+AA/−AA)” value (gene ATF5, Qvalue 2.01E−54) was 2.398, the “+AA FPKM” value (gene ATF5, −AA FPKM 24.183) was 129.867 FPKM and the “Log2 (+AA/−AA)” value (gene AXL, Qvalue 9.98E−29) was 4.406. The “+AA FPKM” value (gene AXL, −AA FPKM 1.033) was 21.903 FPKM, the “Log2 (+AA/−AA)” value (gene C3, Qvalue 0.001547846) was 3.579 and the “+AA FPKM” value (gene C3, −AA FPKM 1.227) was 14.750 FPKM. The “Log2 (+AA/−AA)” value (gene CCL2, Qvalue 5.74E−06) was 4.646, the “+AA FPKM” value (gene CCL2, −AA FPKM 7.183) was 179.503 FPKM and the “Log2 (+AA/−AA)” value (gene CCL13, Qvalue 8.06E−14) was 6.195. The “+AA FPKM” value (gene CCL13, −AA FPKM 0.197) was 14.483 FPKM, the “Log2 (+AA/−AA)” value (gene CD14, Qvalue 2.98E−25) was 4.038 and the “+AA FPKM” value (gene CD14, −AA FPKM 2.797) was 46.303 FPKM. The “Log2 (+AA/−AA)” value (gene CD209, Qvalue 9.84E−27) was 2.774, the “+AA FPKM” value (gene CD209, −AA FPKM 2.460) was 16.407 FPKM and the “Log2 (+AA/−AA)” value (gene CES1, Qvalue 0.03002647) was 3.002. The “+AA FPKM” value (gene CES1, −AA FPKM 6.620) was 52.940 FPKM, the “Log2 (+AA/−AA)” value (gene CFB, Qvalue 2.09E−06) was 3.059 and the “+AA FPKM” value (gene CFB, −AA FPKM 1.257) was 10.533 FPKM. For the same compound, the “Log2 (+AA/−AA)” value (gene CHI3L1, Qvalue 0.024834793) was 2.178, the “+AA FPKM” value (gene CHI3L1, −AA FPKM 108.107) was 495.927 FPKM and the “Log2 (+AA/−AA)” value (gene CTSL, Qvalue 0.031636618) was 2.759. For the same compound, the “+AA FPKM” value (gene CTSL, −AA FPKM 3.140) was 21.410 FPKM, the “Log2 (+AA/−AA)” value (gene CXCL10, Qvalue 1.78E−06) was 2.352 and the “+AA FPKM” value (gene CXCL10, −AA FPKM 36.100) was 183.493 FPKM. The “Log2 (+AA/−AA)” value (gene DEFA1, Qvalue 6.38E−05) was 5.728, the “+AA FPKM” value (gene DEFA1, −AA FPKM 19.907) was 1047.070 FPKM and the “Log2 (+AA/−AA)” value (gene DEFA3, Qvalue 0.001704486) was 4.431. The “+AA FPKM” value (gene DEFA3, −AA FPKM 27.457) was 593.480 FPKM, the “Log2 (+AA/−AA)” value (gene DEFA4, Qvalue 1.65E−08) was 4.651 and the “+AA FPKM” value (gene DEFA4, −AA FPKM 39.303) was 975.213 FPKM. The “Log2 (+AA/−AA)” value (gene DNASE1L3, Qvalue 5.63E−10) was 2.459, the “+AA FPKM” value (gene DNASE1L3, −AA FPKM 1.893) was 10.470 FPKM and the “Log2 (+AA/−AA)” value (gene FPR3, Qvalue 3.93E−08) was 2.200. For the same compound, the “+AA FPKM” value (gene FPR3, −AA FPKM 10.853) was 50.280 FPKM, the “Log2 (+AA/−AA)” value (gene GIMAP4, Qvalue 3.03E−09) was 2.409 and the “+AA FPKM” value (gene GIMAP4, −AA FPKM 3.960) was 20.933 FPKM. For the same compound, the “Log2 (+AA/−AA)” value (gene GPNMB, Qvalue 4.79E−08) was 4.418, the “+AA FPKM” value (gene GPNMB, −AA FPKM 4.760) was 101.280 FPKM and the “Log2 (+AA/−AA)” value (gene GZMB, Qvalue 3.57E−07) was 3.081. The “+AA FPKM” value (gene GZMB, −AA FPKM 3.773) was 31.393 FPKM, the “Log2 (+AA/−AA)” value (gene HSD11B1, Qvalue 0.044667374) was 3.736 and the “+AA FPKM” value (gene HSD11B1, −AA FPKM 1.240) was 16.590 FPKM. For the same compound, the “Log2 (+AA/−AA)” value (gene IFI27, Qvalue 3.56E−04) was 4.638, the “+AA FPKM” value (gene IFI27, −AA FPKM 14.857) was 376.697 FPKM and the “Log2 (+AA/−AA)” value (gene IFI44L, Qvalue 1.82E−05) was 2.109. For the same compound, the “+AA FPKM” value (gene IFI44L, −AA FPKM 17.913) was 81.280 FPKM, the “Log2 (+AA/−AA)” value (gene IL4I1, Qvalue 5.63E−07) was 2.589 and the “+AA FPKM” value (gene IL4I1, −AA FPKM 4.657) was 28.410 FPKM. The “Log2 (+AA/−AA)” value (gene IL32, Qvalue 2.92E−23) was 2.353, the “+AA FPKM” value (gene IL32, −AA FPKM 5.960) was 30.560 FPKM and the “Log2 (+AA/−AA)” value (gene KYNU, Qvalue 2.56E−05) was 2.148. The “+AA FPKM” value (gene KYNU, −AA FPKM 6.050) was 26.750 FPKM, the “Log2 (+AA/−AA)” value (gene LAG3, Qvalue 8.08E−20) was 3.418 and the “+AA FPKM” value (gene LAG3, −AA FPKM 2.770) was 29.953 FPKM. For the same compound, the “Log2 (+AA/−AA)” value (gene LCN2, Qvalue 1.39E−54) was 5.282, the “+AA FPKM” value (gene LCN2, −AA FPKM 0.930) was 35.670 FPKM and the “Log2 (+AA/−AA)” value (gene LILRB4, Qvalue 3.21E−22) was 3.922. The “+AA FPKM” value (gene LILRB4, −AA FPKM 1.363) was 19.833 FPKM, the “Log2 (+AA/−AA)” value (gene MAFB, Qvalue 0.00100367) was 3.471 and the “+AA FPKM” value (gene MAFB, −AA FPKM 1.023) was 11.443 FPKM. For the same compound, the “Log2 (+AA/−AA)” value (gene MMP14, Qvalue 1.27E−18) was 4.564, the “+AA FPKM” value (gene MMP14, −AA FPKM 1.470) was 34.870 FPKM and the “Log2 (+AA/−AA)” value (gene MPEG1, Qvalue 3.81E−23) was 2.325. For the same compound, the “+AA FPKM” value (gene MPEG1, −AA FPKM 22.783) was 112.763 FPKM, the “Log2 (+AA/−AA)” value (gene MX1, Qvalue 0.026353098) was 2.341 and the “+AA FPKM” value (gene MX1, −AA FPKM 41.507) was 211.673 FPKM. For the same compound, the “Log2 (+AA/−AA)” value (gene MYL9, Qvalue 9.98E−29) was 4.530, the “+AA FPKM” value (gene MYL9, −AA FPKM 0.550) was 12.580 FPKM and the “Log2 (+AA/−AA)” value (gene NUPR1, Qvalue 8.23E−04) was 3.257. The “+AA FPKM” value (gene NUPR1, −AA FPKM 1.457) was 14.303 FPKM, the “Log2 (+AA/−AA)” value (gene OLR1, Qvalue 0.030792442) was 2.719 and the “+AA FPKM” value (gene OLR1, −AA FPKM 1.523) was 10.067 FPKM. For the same compound, the “Log2 (+AA/−AA)” value (gene ORM1, Qvalue 1.09E−20) was 4.863, the “+AA FPKM” value (gene ORM1, −AA FPKM 3.003) was 88.200 FPKM and the “Log2 (+AA/−AA)” value (gene P2RY11, Qvalue 3.25E−10) was 3.498. The “+AA FPKM” value (gene P2RY11, −AA FPKM 0.970) was 10.823 FPKM, the “Log2 (+AA/−AA)” value (gene PLA2G7, Qvalue 0.030445407) was 2.759 and the “+AA FPKM” value (gene PLA2G7, −AA FPKM 12.103) was 86.573 FPKM. For the same compound, the “Log2 (+AA/−AA)” value (gene SIGLEC1, Qvalue 0.003740839) was 2.998, the “+AA FPKM” value (gene SIGLEC1, −AA FPKM 3.223) was 26.273 FPKM and the “Log2 (+AA/−AA)” value (gene SLC7A7, Qvalue 6.15E−21) was 2.460. For the same compound, the “+AA FPKM” value (gene SLC7A7, −AA FPKM 9.010) was 49.703 FPKM, the “Log2 (+AA/−AA)” value (gene SLC15A3, Qvalue 4.84E−06) was 2.417 and the “+AA FPKM” value (gene SLC15A3, −AA FPKM 9.753) was 52.340 FPKM. For the same compound, the “Log2 (+AA/−AA)” value (gene SPON2, Qvalue 6.39E−10) was 2.497, the “+AA FPKM” value (gene SPON2, −AA FPKM 4.037) was 22.397 FPKM and the “Log2 (+AA/−AA)” value (gene ST14, Qvalue 1.06E−29) was 2.575. The “+AA FPKM” value (gene ST14, −AA FPKM 1.920) was 11.390 FPKM, the “Log2 (+AA/−AA)” value (gene TLR7, Qvalue 1.13E−20) was 2.326 and the “+AA FPKM” value (gene TLR7, −AA FPKM 2.483) was 12.300 FPKM. The “Log2 (+AA/−AA)” value (gene USP18, Qvalue 0.029120385) was 3.335, the “+AA FPKM” value (gene USP18, −AA FPKM 2.210) was 22.600 FPKM and the “Log2 (+AA/−AA)” value (gene XCR1, Qvalue 2.80E−29) was 2.881. For the same compound, the “+AA FPKM” value (gene XCR1, −AA FPKM 1.363) was 10.463 FPKM and the “log2 (+AA/−AA)” value (Table 3, gene FCER1G, Qvalue 0.03) was 0.509.
